Data from PubChem BioAssay AID328 (DTP/NCI, 2004).
Several values for one entry are separate records, joined by “and”; a condition that tells them apart may be missing. Equal entries are not always repeated. Toxic doses and inconclusive results are not listed. Non-standard residues stand in square brackets, D forms with d. Residues, ends and D or L forms follow the SMILES beside them. ξ: configuration not given here. ξPhe(4-N(CH2CH2Cl)2) = NC(Cc1ccc(N(CCCl)CCCl)cc1)C(=O)O

System: BDF1 mice, P388 leukemia ip, median survival T/C
Experiment: NCI In Vivo Anticancer Drug Screen. Data for tumor model P388 Leukemia (intraperitoneal) in B6D2F1 (BDF1) mice
Details: endpoint: median survival time, higher = longer survival
In short: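 Read-out is survival of treated animals expressed relative to the vehicle group, as a T/C ratio.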

[1] = dose: 25.0 mg/kg/injection, schedule: Q01DX009 (ip), vehicle: saline with Tween-80
[2] = dose: 50.0 mg/kg/injection, schedule: Q01DX009 (ip), vehicle: saline with Tween-80
[3] = dose: 50.0 mg/kg/injection, schedule: Q01DX001 (ip), vehicle: saline with Tween-80
[4] = dose: 100.0 mg/kg/injection, schedule: Q01DX001 (ip), vehicle: saline with Tween-80
[5] = dose: 100.0 mg/kg/injection, schedule: Q01DX009 (ip), vehicle: Klucel (hydroxypropylcellulose) (HPC)
[6] = dose: 100.0 mg/kg/injection, schedule: Q04DX003 (ip), vehicle: Klucel (hydroxypropylcellulose) (HPC)
[7] = dose: 200.0 mg/kg/injection, schedule: Q01DX009 (ip), vehicle: Klucel (hydroxypropylcellulose) (HPC)
[8] = dose: 200.0 mg/kg/injection, schedule: Q04DX003 (ip), vehicle: Klucel (hydroxypropylcellulose) (HPC)
[9] = dose: 400.0 mg/kg/injection, schedule: Q01DX009 (ip), vehicle: Klucel (hydroxypropylcellulose) (HPC)
[10] = dose: 400.0 mg/kg/injection, schedule: Q04DX003 (ip), vehicle: Klucel (hydroxypropylcellulose) (HPC)
[11] = dose: 100.0 mg/kg/injection, schedule: Q01DX009 (ip), vehicle: saline with Tween-80
[12] = dose: 25.0 mg/kg/injection, schedule: Q01DX009 (ip), vehicle: Klucel (hydroxypropylcellulose) (HPC)
[13] = dose: 50.0 mg/kg/injection, schedule: Q01DX009 (ip), vehicle: Klucel (hydroxypropylcellulose) (HPC)
[14] = dose: 200.0 mg/kg/injection, schedule: Q01DX009 (ip), vehicle: saline with Tween-80

CCN1C(=O)C(=O)c2ccccc21
T/C (dose: 75.0 mg/kg/injection, schedule: Q01DX009 (ip), vehicle: saline with Tween-80): 86 % of control

COC(=O)C[CH2][Pb]([c]1ccccc1)([c]1ccccc1)[c]1ccccc1
T/C [1]: 106 % of control | T/C [2]: 98 % of control

COc1cc(C=Nc2cc(Cl)ccc2-n2ccnc2C)ccc1N(CCCl)CCCl
T/C (dose: 21.0 mg/kg/injection, schedule: Q04DX003 (ip), vehicle: saline with Tween-80): 170 % of control | T/C (dose: 33.0 mg/kg/injection, schedule: Q04DX003 (ip), vehicle: saline with Tween-80): 235 % of control | T/C (dose: 50.0 mg/kg/injection, schedule: Q04DX003 (ip), vehicle: saline with Tween-80): 170 % of control | T/C (dose: 75.0 mg/kg/injection, schedule: Q04DX003 (ip), vehicle: saline with Tween-80): 178 % of control

COc1cc2c(c(OC)c1OC)-c1ccc(OC)c(=O)cc1[C@@H](NC(=O)c1ccccc1)CC2
T/C (dose: 0.06 mg/kg/injection, schedule: Q01DX009 (ip), vehicle: saline sonified): 112 % of control | T/C (dose: 0.12 mg/kg/injection, schedule: Q01DX009 (ip), vehicle: saline sonified): 116 % of control | T/C (dose: 0.5 mg/kg/injection, schedule: Q01DX009 (ip), vehicle: saline sonified): 163 % of control | T/C (dose: 1.0 mg/kg/injection, schedule: Q01DX009 (ip), vehicle: saline sonified): 190 % of control | T/C (dose: 2.0 mg/kg/injection, schedule: Q01DX009 (ip), vehicle: saline sonified): 254 % of control and 109 % of control | T/C (dose: 3.3 mg/kg/injection, schedule: Q04DX003 (ip), vehicle: saline): 159 % of control | T/C (dose: 4.0 mg/kg/injection, schedule: Q01DX009 (ip), vehicle: saline sonified): 272 % of control | T/C (dose: 5.0 mg/kg/injection, schedule: Q04DX003 (ip), vehicle: saline): 200 % of control | T/C (dose: 6.0 mg/kg/injection, schedule: Q01DX009 (ip), vehicle: saline sonified): 162 % of control | T/C (dose: 7.5 mg/kg/injection, schedule: Q04DX003 (ip), vehicle: saline): 204 % of control

NNC(=O)c1ccc(Cl)cc1Nc1cccc(Cl)c1
T/C [3]: 100 % of control | T/C [4]: 100 % of control | T/C (dose: 200.0 mg/kg/injection, schedule: Q01DX001 (ip), vehicle: saline with Tween-80): 104 % of control

Cc1ccc(C)c(NC(=O)c2ccccc2N)c1
T/C [5]: 100 % of control | T/C [6]: 104 % of control | T/C [7]: 100 % of control | T/C [8]: 104 % of control | T/C [9]: 90 % of control | T/C [10]: 104 % of control

CC(=O)Nc1ccc2c3c(ccc([N+](=O)[O-])c13)CC2
T/C (dose: 100.0 mg/kg/injection, schedule: Q01DX009 (ip), vehicle: saline): 90 % of control | T/C (dose: 200.0 mg/kg/injection, schedule: Q01DX009 (ip), vehicle: saline): 95 % of control

O=C(O)c1ccccc1Nc1ccc(Br)cc1
T/C [3]: 100 % of control | T/C [4]: 91 % of control

NC(N)=Nc1nc2ccccc2s1
T/C (dose: 12.5 mg/kg/injection, schedule: Q04DX003 (ip), vehicle: saline sonified): 104 % of control | T/C (dose: 25.0 mg/kg/injection, schedule: Q04DX003 (ip), vehicle: saline sonified): 100 % of control | T/C (dose: 50.0 mg/kg/injection, schedule: Q04DX003 (ip), vehicle: saline sonified): 100 % of control

COc1ccc(C(Cn2ccnc2)Sc2ccc(Cl)c(Cl)c2)cc1 (stereo unspecified)
T/C (dose: 12.5 mg/kg/injection, schedule: Q01DX009 (ip), vehicle: saline with Tween-80): 105 % of control | T/C [1]: 110 % of control | T/C [2]: 120 % of control | T/C [11]: 93 % of control and 119 % of control

NC(CO)C(=O)NC(CCC(=O)O)C(=O)NC(CO)C(=O)NC(CCC(=O)O)C(=O)NC(Cc1ccc(N(CCCl)CCCl)cc1)C(=O)O (stereo unspecified) (H-SESE[ξPhe(4-N(CH2CH2Cl)2)]-OH; configuration not given here)
T/C (dose: 5.0 mg/kg/injection, schedule: Q04DX003 (ip), vehicle: water): 100 % of control | T/C (dose: 10.0 mg/kg/injection, schedule: Q04DX003 (ip), vehicle: water): 98 % of control | T/C (dose: 20.0 mg/kg/injection, schedule: Q04DX003 (ip), vehicle: water): 97 % of control | T/C (dose: 40.0 mg/kg/injection, schedule: Q04DX003 (ip), vehicle: water): 100 % of control

Nc1nc(=S)[nH]c(C(=O)O)c1Cc1ccccc1
T/C [12]: 109 % of control | T/C [13]: 86 % of control and 115 % of control | T/C [5]: 115 % of control | T/C [7]: 120 % of control

Cc1cc(N(CCO)CCO)c2ccc3cc4ccccc4cc3c2n1
T/C [2]: 119 % of control | T/C [11]: 116 % of control | T/C [14]: 94 % of control

OC1(CSc2ccccc2)C=CCCC1 (stereo unspecified)
T/C [1]: 97 % of control and 111 % of control | T/C [2]: 98 % of control and 112 % of control and 113 % of control | T/C [11]: 109 % of control and 112 % of control and 121 % of control | T/C [14]: 111 % of control and 119 % of control and 120 % of control

NC(=O)c1cn[nH]c1N
T/C (dose: 12.5 mg/kg/injection, schedule: Q01DX009 (ip), vehicle: Klucel (hydroxypropylcellulose) (HPC)): 95 % of control | T/C [12]: 87 % of control | T/C [13]: 91 % of control | T/C [6]: 104 % of control | T/C [8]: 100 % of control | T/C [10]: 113 % of control

COC(=O)/C=C1\Sc2ccc(C(F)(F)F)cc2NC1=O
T/C [2]: 91 % of control | T/C [11]: 91 % of control | T/C [14]: 91 % of control

CN(C)c1ccc(/C=C/c2cccc(/C=C/c3ccc(N(C)C)cc3)[n+]2[O-])cc1
T/C (dose: 50.0 mg/kg/injection, schedule: Q01DX005 (ip), vehicle: saline with Tween-80): 91 % of control | T/C (dose: 100.0 mg/kg/injection, schedule: Q01DX005 (ip), vehicle: saline with Tween-80): 89 % of control | T/C (dose: 200.0 mg/kg/injection, schedule: Q01DX005 (ip), vehicle: saline with Tween-80): 93 % of control

Cc1ccc(S(=O)(=O)N2CCC(=O)c3ccc(Cl)cc32)cc1
T/C [6]: 100 % of control | T/C [7]: 100 % of control | T/C [8]: 104 % of control | T/C [9]: 95 % of control | T/C [10]: 104 % of control

COc1cccc(/C=C2\SC(=S)N(CCCN3CCOCC3)C2=O)c1OC
T/C [2]: 91 % of control | T/C [11]: 88 % of control

O=C(Nc1ccc(C(=O)O)cc1)Oc1ccc(N(CCCl)CCCl)cc1
T/C (dose: 12.0 mg/kg/injection, schedule: Q04DX003 (ip), vehicle: saline): 163 % of control | T/C (dose: 19.0 mg/kg/injection, schedule: Q04DX003 (ip), vehicle: saline): 154 % of control | T/C (dose: 29.0 mg/kg/injection, schedule: Q04DX003 (ip), vehicle: saline with Tween-80): 200 % of control | T/C (dose: 45.0 mg/kg/injection, schedule: Q04DX003 (ip), vehicle: saline with Tween-80): 235 % of control | T/C (dose: 66.0 mg/kg/injection, schedule: Q04DX003 (ip), vehicle: saline with Tween-80): 163 % of control | T/C (dose: 100.0 mg/kg/injection, schedule: Q04DX003 (ip), vehicle: saline with Tween-80): 245 % of control | T/C (dose: 150.0 mg/kg/injection, schedule: Q04DX003 (ip), vehicle: saline with Tween-80): 190 % of control

N#CSCc1ccc(OCc2ccccc2)cc1
T/C [2]: 100 % of control | T/C [11]: 103 % of control | T/C [14]: 112 % of control

COC(=O)C1=C(C)NC(C)=C(C(=O)OC)C1C(C)Cl (stereo unspecified)
T/C [2]: 118 % of control | T/C [11]: 109 % of control

CC(=O)OS(C)(=O)=O
T/C (dose: 20.0 mg/kg/injection, schedule: Q04DX003 (ip), vehicle: saline): 100 % of control | T/C (dose: 40.0 mg/kg/injection, schedule: Q04DX003 (ip), vehicle: saline): 95 % of control | T/C (dose: 80.0 mg/kg/injection, schedule: Q04DX003 (ip), vehicle: saline): 104 % of control | T/C (dose: 100.0 mg/kg/injection, schedule: Q04DX003 (ip), vehicle: saline): 110 % of control

Cc1nc[nH]c1[N+](=O)[O-]
T/C [1]: 100 % of control | T/C [11]: 86 % of control

O=C(O)C1CC2c3ccccc3C1c1ccccc12 (stereo unspecified)
T/C [6]: 90 % of control | T/C [8]: 95 % of control | T/C [10]: 109 % of control

CC1CCCCC1O (stereo unspecified)
T/C [2]: 100 % of control and 109 % of control | T/C [11]: 93 % of control and 109 % of control | T/C [14]: 111 % of control and 95 % of control

COC(=O)CCCCC(=O)OC
T/C [11]: 100 % of control | T/C [14]: 100 % of control | T/C (dose: 400.0 mg/kg/injection, schedule: Q01DX009 (ip), vehicle: saline with Tween-80): 109 % of control

c1cc[n+]2c(c1)-c1cccc[n+]1CC2
T/C (dose: 3.13 mg/kg/injection, schedule: Q04DX003 (ip), vehicle: saline): 100 % of control | T/C (dose: 6.25 mg/kg/injection, schedule: Q04DX003 (ip), vehicle: saline): 95 % of control | T/C (dose: 12.5 mg/kg/injection, schedule: Q04DX003 (ip), vehicle: saline): 100 % of control
